The values below come from PMC12238850, “Molecular determinants for recognition of serotonylated chromatin” (Nucleic Acids Research, 2025).

Where two headings read alike, the source gives them in different places. Bounds are passed on as bounds.

In experiment [1] the test system is TFIID. Kind of experiment: Histone peptide pull-down qMS, HeLa nuclear extract. In kind it is binding, HeLa cells. The settings on record: biotinylated H3 (1–13) peptides, overnight at 4°C, 300 mM NaCl, pH 7.9, qMS, FDR 0.1. The protocol:
(§1) Nuclear extracts of HeLa cells were prepared using a modified version of the Dignam procedure. Cytosolic and nuclear separation was validated by immunoblot using the following antibodies: for TBP the 20C7 in house mouse monoclonal and for Tubulin the DM1A monoclonal from Calbiochem (CP06) (Supplementary Fig. S5A). Biotinylated H3 (1–13) peptides immobilized on Dynabeads™ M-280 Streptavidin (Invitrogen) were incubated on a rotating wheel with 1 mg of HeLa nuclear extract overnight at 4°C in binding buffer [20 mM HEPES–KOH, pH 7.9, 300 mM NaCl, 20% glycerol, 2 mM MgCl2, 0.2 mM ethylenediaminetetraacetic acid, 0.1% NP-40, 0.5 mM DTT, and 1× cOmplete™ Protease Inhibitor Cocktail (Roche)]. The beads were then washed two times with binding buffer containing 0.5% NP-40, two times with phosphate buffered saline (PBS) containing 0.5% NP-40, and two times with plain PBS. On-bead digestion of bound proteins was performed overnight at 22°C with 0.1 μg/ml of trypsin in elution buffer (100 mM Tris–HCl, pH 7.5, 2 M urea, 10 mM DTT). […] A third of the final elution was analysed as described in [44, 45] with minor changes. For nanoflow-HPLC–MS/MS samples were analysed on an Orbitrap Fusion Lumos mass spectrometer coupled to an Easy nano-LC 1200 HPLC (Thermo Fisher Scientific). […]

The target in experiment [2] is T1, Taf3-PHD (residues 857–924) (Mus musculus, UniProt Q5HZG4).
T1 construct: PHD finger of Taf3 (residues 857–924) in NMR buffer; GST (N, cleaved yes); made in house; host or cells: E. coli BL21(DE3), M9 minimal medium (13C/15N)
T1 sequence (Q5HZG4 857-924): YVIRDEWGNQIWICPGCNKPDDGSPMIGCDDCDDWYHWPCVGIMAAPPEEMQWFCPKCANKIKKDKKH
Kind of experiment: NMR titration line shape analysis (TITAN), wild-type Taf3-PHD. It is filed as binding. How it is done: The ^13C- and ^15N-labelled Taf3-PHD NMR samples were purified as described above, with minor differences. A single colony of freshly transformed BL21(DE3) E. coli was grown in a synthetic M9 minimal medium (6.0 g/l Na2HPO4·2H2O, 3.0 g/l KH2PO4, 0.5 g/l NaCl, 25 mg/l MgSO4, 290 μg/l CaCl2, 1 μg/l FeSO4·7H2O, 270 μg/l ZnCl2, and 5 mg/l thiamine) containing 2.0 g/l ^13C-glucose as the only carbon source and 0.5 g/l ^15NH4Cl as the sole nitrogen source. Protein expression, lysis, and loading to Glutathione Sepharose™ column were performed as described above. The GST-tag was removed through on-column thrombin digestion by loading excess thrombin (SERVA) in wash buffer followed by overnight digestion at 4°C. The cleaved PHD moiety with a […] N-terminal extension (Gly–Ser–His–Met–Ala–Met–Ala) remaining from the thrombin cleavage site was collected from the flow-through and further purified in a Mono Q™ 10/100 GL as before and subsequently loaded to a Superdex-75 HiLoad 16/600 gel filtration column in NMR buffer (20 mM KPi, pH 7.0, 150 mM KCl, 10 μM ZnCl2) (Supplementary Fig. S1).
All data were recorded at 298 K on a Bruker Avance III HD 900 MHz spectrometer equipped with a cryoprobe, unless noted otherwise. Sample for assignment verification contained 0.3 mM ^13C- and ^15N-labelled PHD finger of Taf3 (residues 857–924) in NMR buffer (20 mM KPi, pH 7.0, 150 mM KCl, 10 μM ZnCl2, 0.01% NaN3, 10% D2O) in a 5-mm NMR tube. Samples for peptide interaction studies contained 0.19 mM ^13C- and ^15N-labelled PHD in NMR buffer in 3-mm NMR tubes. Lyophilized peptides were dissolved in NMR buffer including 1 mM sodium 3-(trimethylsilyl)tetradeuteriopropanionate (TSP) into 20 mM stock solutions. Upon dilution to 1 mM, all peptide solutions were at pH 7.0 in NMR buffer. Peptide concentrations were determined by comparing the integral of the Thr methyl signal (from T3, T6, and T11, total nine protons) to that of TSP using a quantitative 1D experiment (recycle delay 60 s) recorded at a Bruker Avance III 600 MHz spectrometer. Saturated complexes with H3K4me1/H3K4me2/H3K4me3 peptides with and without H3Q5ser were made by adding peptide to a 0.7 mM final concentration (3.6 equiv.). […] Additional samples were prepared using 30%, 50%, 80%, and 160% equiv. of peptide. All spectra were recorded and processed using Bruker Topspin and analysed using NMR-FAM Sparky and Poky.
For the H3K4me2 complexes, the resonance of G879 was excluded due to overlap and that of K875 was included. Spectra were processed using NMRPipe using exponential line broadening of 10/15 Hz in the direct/indirect dimension of the free induction decay before Fourier transform. Data were fit against a 1:1 binding model that also optimizes the ligand concentration to compensate for concentration errors. Fitting assumed an HSQC experiment using 1.2 ms for the first zz-filter delays and an additional 0.6 ms evolution at the start and end of t1 that accommodated the echo/anti-echo gradient. The average koff value and standard error from a bootstrap analysis based on 100 replicas are reported. The 95% confidence limits were estimated using a grid search fixing koff allowing for an ∼3% increase in the final residuals as based on the F-statistic given the degrees of freedom. For each koff value, the KD for the H3K4me3 peptide was restrained to fall within 100 and 400 nM to enforce compatibility to previous reported affinity to avoid unrealistically high fitted KD values at higher koff values. Of note, the quality of the fit at the confidence limit edges is visibly worse than the best fit, particularly for the high koff side. For the H3K4me3Q5ser peptide, no restraint on KD was necessary. For the H3K4me2 peptides, the KD was restrained to 5 μM maximum. Without these upper bounds for KD, slightly wider confidence limits for koff are found.

The target in experiment [3] is TAF3-PHD. The settings on record: read-out: expected dissociation constant (KD); cited from earlier work. How it is done: An important link between H3K4me3 and pol II is formed by the basal transcription factor TFIID [[32], [35–37]]. TFIID is able to engage with active promoters by DNA contacts as well as by two histone-binding domains: the double bromodomains of TAF1 engaging acylated histones and the TAF3-PHD finger binding H3K4me3 [[32], [35–37]]. […] Binding of ... || All data were recorded at 298 K on a Bruker Avance III HD 900 MHz spectrometer equipped with a cryoprobe, unless noted otherwise. Sample for assignment verification contained 0.3 mM ^13C- and ^15N-labelled PHD finger of Taf3 (residues 857–924) in NMR buffer (20 mM KPi, pH 7.0, 150 mM KCl, 10 μM ZnCl2, 0.01% NaN3, 10% D2O) in a 5-mm NMR tube. Samples for peptide interaction studies contained 0.19 mM ^13C- and ^15N-labelled PHD in NMR buffer in 3-mm NMR tubes. Lyophilized peptides were dissolved in NMR buffer including 1 mM sodium 3-(trimethylsilyl)tetradeuteriopropanionate (TSP) into 20 mM stoc ... || Overall, we propose that serotonin recognition is governed by edge–face CH–π interactions with either aromatic residues or prolines. Consistent with our proposal, CHD1 contains aromatic residues at positions Y295 and Y406, either of which could orient to engage with H3Q5ser explaining the preference of CHD1 for serotonin (Supplementary Fig. S15C). […]

Experiment [4] concerns the target 13C- and 15N-labelled Taf3-PHD finger (residues 857-924), GST removed by thrombin (Mus musculus) (UniProt Q5HZG4). Description: NMR titration; 0.19 mM 13C,15N-labelled Taf3-PHD, peptide added (30% to 3.6 equiv.); 298 K; 20 mM KPi pH 7.0, 150 mM KCl, 10 μM ZnCl2; koff from TITAN line-shape fits (0%, 50%, 150% peptide), 1:1 model.
Experiment [5] has as its target Taf3-PHD P881E–W894F used for NMR titrations (Mus musculus) (UniProt Q5HZG4). The experiment is described as above.
The subject of experiment [6] is BPTF. Description: Histone peptide pull-down qMS, HeLa nuclear extract. The following applies: biotinylated H3 (1–13) peptides, FDR 0.1. It is filed as binding, HeLa cells. How it is done:
as §1

The target of experiment [7] is T2, Taf3-PHD (Mus musculus Taf3 residues 857-924), 13C- and 15N-labelled, GST removed (Mus musculus, UniProt Q5HZG4 857-924, 13C- and 15N-labelled).
T2 construct: Taf3 PHD finger, Mus musculus, residues 857-924; numbering of mouse Taf3 isoform 1, UniProt Q5HZG4; also called Taf3-PHD finger; PHD domain; source: E. coli BL21(DE3) in M9 minimal medium, purified (Glutathione Sepharose, on-column thrombin, Mono Q, Superdex-75); not shown: GST, N-terminal, cleaved
T2 sequence: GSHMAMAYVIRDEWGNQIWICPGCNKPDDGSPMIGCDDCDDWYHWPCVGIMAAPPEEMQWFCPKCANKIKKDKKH
Description: solution NMR structure; 0.88 mM 13C,15N Taf3-PHD with 0.88 mM H3K4me3Q5ser peptide; 20 mM KPi pH 7.0, 4 mM KCl, 10 uM ZnCl2; NOESY at 293 K; NOE distance restraints imposed with HADDOCK on the structure PDB 2K17. The following applies: both partners purified.

For the molecule `C[C@H](N)C(=O)N[C@@H](CCCNC(=N)N)C(=O)N[C@H](C(=O)N[C@@H](CCCCN(C)C)C(=O)N[C@@H](CCC(=O)NCCc1c[nH]c2ccc(O)cc12)C(=O)N[C@H](C(=O)N[C@@H](C)C(=O)N[C@@H](CCCNC(=N)N)C(=O)N[C@@H](CCCCN)C(=O)N[C@@H](CO)C(=O)N[C@H](C(=O)NCC(N)=O)[C@@H](C)O)[C@@H](C)O)[C@@H](C)O` [H3K4me2Q5ser], the “TFIID preference for H3Q5ser peptides” value in experiment [1] was “TFIID enrichment was most pronounced”. The koff in experiment [2] (pH 7) was 71 ± 2 s⁻¹; in experiment [2] (pH 7, read-out: koff 95% confidence limits) it was 56 to 90 s⁻¹. `C[C@H](N)C(=O)N[C@@H](CCCNC(=N)N)C(=O)N[C@H](C(=O)N[C@@H](CCCCN(C)C)C(=O)N[C@@H](CCC(N)=O)C(=O)N[C@H](C(=O)N[C@@H](C)C(=O)N[C@@H](CCCNC(=N)N)C(=O)N[C@@H](CCCCN)C(=O)N[C@@H](CO)C(=O)N[C@H](C(=O)NCC(N)=O)[C@@H](C)O)[C@@H](C)O)[C@@H](C)O` [H3K4me2]: in experiment [3], the Kd was 1.7 µM. In addition, the koff was 207 ± 10 s⁻¹ in experiment [2] (NMR line shape fit (TITAN), 298 K, 20 mM KPi, pH 7.0, 150 mM KCl, 1:1 model, average ± standard error from bootstrap, 100 replicas, read-out: koff) and 160 to 250 s⁻¹ in experiment [2] (NMR line shape fit (TITAN), 298 K, pH 7.0, grid search, read-out: koff 95% confidence limits). Regarding “H3K4me2 histone H3 tail peptide (non-biotinylated)”, the koff in experiment [4] worked out at 207 s⁻¹. “H3K4me2Q5ser histone H3 tail peptide (non-biotinylated)”: in experiment [4], the koff came out at 71 s⁻¹.

With “H3K4me3 histone H3 tail peptide (non-biotinylated)”, the off-rate constant (koff) stood at 29.6 s⁻¹ in experiment [5] and 48.8 s⁻¹ in experiment [4]. On the same counts, the results for “H3K4me3Q5ser histone H3 tail peptide (non-biotinylated)” are 24.2 s⁻¹ and 16.8 s⁻¹. On to “H-ARTK(Me)QTARKSTG-NH2 [H3K4me1, H3 tail peptide monomethylated at lysine 4]”, for which the equilibrium dissociation constant (Kd) in experiment [3] was > 200 µM. For the molecule “H-ARTKQ(ser)TARKSTG-NH2 [H3Q5ser, H3 tail peptide, K4 unmethylated, serotonylated glutamine 5]”, the “BPTF preference for H3Q5ser peptides” value in experiment [6] was “enhanced binding to H3Q5ser compared to the unmodified H3 peptide”.

B1: H3K4me3Q5ser peptide, non-biotinylated: H-ARTK(Me3)Q(ser)TARKSTG-NH2 (peptide)
peptide: H-ARTK(Me3)Q(serotonyl)TARKSTG-NH2
notes: histone H3 N-terminal tail, residues 1-12 of H3K4me3Q5ser; also called H3K4me3Q5ser ligand; H3 peptide; source: synthetic peptide
For the molecule B1, the binding result in experiment [7] is “binds”.

What is called koff is a measure of how fast the partners let go of each other. Usually Kd stands for the constant that tells how readily two partners part at equilibrium.
